# Measurements reported in ChEMBL document CHEMBL1152979, “Inhibition of the insulin-like growth factor-1 receptor (IGF1R) tyrosine kinase as a novel cancer therapy approach” (J Med Chem, 2009).
# Tests used:
# [1] = biological target: T1, Insulin-like growth factor 1 receptor (Homo sapiens, UniProt P08069); assay: Inhibition for IGF1R-induced S6 ribosomal protein phosphorylation in growth factor-stimulated NHDF
# [2] = biological target: T1, Insulin-like growth factor 1 receptor; assay: Inhibition of IGF1R in growth factor-stimulated NHDF
# [3] = biological target: T1, Insulin-like growth factor 1 receptor
# [4] = Cytotoxicity against human RD1 cells; type: functional, cell-based
# MCF7 = assay: Cytotoxicity against human MCF7 cells; type: functional, cell-based
# Focal adhesion kinase 1 = Focal adhesion kinase 1 (Homo sapiens, UniProt Q05397)
# [5] = Cytotoxicity against human MDA PCa 2b cells; type: functional, cell-based
# COLO 205 = assay: Cytotoxicity against human COLO205 cells; type: functional, cell-based
# [6] = biological target: Tyrosine-protein kinase Lck (Homo sapiens, UniProt P06239)
# [7] = Selectivity for EGFR over HER2
# [8] = biological target: T1, Insulin-like growth factor 1 receptor; assay: Inhibition of IGF1R autophosphorylation in human MCF7 cells by Western blot analysis; type: cell-based
# [9] = biological target: T1, Insulin-like growth factor 1 receptor; assay: Inhibition of IGF1R in human MCF7 cells by Western blot analysis; type: cell-based
# [10] = biological target: T1, Insulin-like growth factor 1 receptor; remark: listed apart in the source
# Description: Inhibition of IGF1R by cell based assay
# [11] = biological target: T1, Insulin-like growth factor 1 receptor; assay: Displacement of fluorescent ATP competitive ligand from IGF1R
# Insulin receptor [12] = biological target: T2, Insulin receptor (Homo sapiens, UniProt P06213); assay: Inhibition of IRK
# T2 sequence (P06213 28-758 limits assumed): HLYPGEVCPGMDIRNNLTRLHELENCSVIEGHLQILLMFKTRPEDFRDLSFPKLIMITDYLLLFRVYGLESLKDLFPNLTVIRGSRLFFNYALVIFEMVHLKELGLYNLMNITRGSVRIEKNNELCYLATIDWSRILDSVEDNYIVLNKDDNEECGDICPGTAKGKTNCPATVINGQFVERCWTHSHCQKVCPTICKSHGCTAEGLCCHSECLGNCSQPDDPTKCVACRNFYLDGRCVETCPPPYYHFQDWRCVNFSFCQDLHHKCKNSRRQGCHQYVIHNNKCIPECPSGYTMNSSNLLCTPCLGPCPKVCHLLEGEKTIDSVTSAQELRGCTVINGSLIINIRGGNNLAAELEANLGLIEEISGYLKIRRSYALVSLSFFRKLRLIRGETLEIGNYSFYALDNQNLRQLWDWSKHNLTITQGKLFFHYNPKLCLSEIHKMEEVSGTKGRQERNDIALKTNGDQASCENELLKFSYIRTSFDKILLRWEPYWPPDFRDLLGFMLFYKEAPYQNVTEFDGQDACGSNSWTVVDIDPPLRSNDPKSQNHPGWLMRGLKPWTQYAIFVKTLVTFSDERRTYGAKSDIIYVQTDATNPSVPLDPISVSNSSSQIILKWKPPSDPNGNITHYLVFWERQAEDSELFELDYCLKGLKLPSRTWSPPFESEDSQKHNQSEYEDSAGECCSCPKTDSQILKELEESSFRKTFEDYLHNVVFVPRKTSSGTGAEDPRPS
# T2 sequence (P06213 763-1382 limits assumed): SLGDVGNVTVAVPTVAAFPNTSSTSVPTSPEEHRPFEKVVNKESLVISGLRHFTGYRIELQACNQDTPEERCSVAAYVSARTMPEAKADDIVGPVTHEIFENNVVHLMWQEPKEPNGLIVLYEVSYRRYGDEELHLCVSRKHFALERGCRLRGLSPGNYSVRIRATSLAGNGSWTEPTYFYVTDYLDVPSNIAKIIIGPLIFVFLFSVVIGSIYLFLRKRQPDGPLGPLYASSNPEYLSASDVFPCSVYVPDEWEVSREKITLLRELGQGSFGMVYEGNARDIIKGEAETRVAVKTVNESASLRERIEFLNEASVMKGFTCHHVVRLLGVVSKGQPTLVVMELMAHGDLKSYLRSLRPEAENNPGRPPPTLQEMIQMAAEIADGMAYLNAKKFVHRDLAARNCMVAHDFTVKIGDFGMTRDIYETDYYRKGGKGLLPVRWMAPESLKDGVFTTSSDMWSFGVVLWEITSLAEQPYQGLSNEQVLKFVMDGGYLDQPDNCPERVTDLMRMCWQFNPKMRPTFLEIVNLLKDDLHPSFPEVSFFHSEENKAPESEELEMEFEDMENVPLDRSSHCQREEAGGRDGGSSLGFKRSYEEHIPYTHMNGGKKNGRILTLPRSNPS
# [13] = biological target: Epidermal growth factor receptor (Homo sapiens, UniProt P00533); assay: Inhibition of HER1
# Bcr/Abl fusion protein = Bcr/Abl fusion protein (Homo sapiens, UniProt P00519); assay: Inhibition of BCR-ABL p210; type: protein assay
# [14] = biological target: Mast/stem cell growth factor receptor Kit (Homo sapiens, UniProt P10721)
# Chain of Mast/stem cell growth factor receptor Kit (P10721 whole entry): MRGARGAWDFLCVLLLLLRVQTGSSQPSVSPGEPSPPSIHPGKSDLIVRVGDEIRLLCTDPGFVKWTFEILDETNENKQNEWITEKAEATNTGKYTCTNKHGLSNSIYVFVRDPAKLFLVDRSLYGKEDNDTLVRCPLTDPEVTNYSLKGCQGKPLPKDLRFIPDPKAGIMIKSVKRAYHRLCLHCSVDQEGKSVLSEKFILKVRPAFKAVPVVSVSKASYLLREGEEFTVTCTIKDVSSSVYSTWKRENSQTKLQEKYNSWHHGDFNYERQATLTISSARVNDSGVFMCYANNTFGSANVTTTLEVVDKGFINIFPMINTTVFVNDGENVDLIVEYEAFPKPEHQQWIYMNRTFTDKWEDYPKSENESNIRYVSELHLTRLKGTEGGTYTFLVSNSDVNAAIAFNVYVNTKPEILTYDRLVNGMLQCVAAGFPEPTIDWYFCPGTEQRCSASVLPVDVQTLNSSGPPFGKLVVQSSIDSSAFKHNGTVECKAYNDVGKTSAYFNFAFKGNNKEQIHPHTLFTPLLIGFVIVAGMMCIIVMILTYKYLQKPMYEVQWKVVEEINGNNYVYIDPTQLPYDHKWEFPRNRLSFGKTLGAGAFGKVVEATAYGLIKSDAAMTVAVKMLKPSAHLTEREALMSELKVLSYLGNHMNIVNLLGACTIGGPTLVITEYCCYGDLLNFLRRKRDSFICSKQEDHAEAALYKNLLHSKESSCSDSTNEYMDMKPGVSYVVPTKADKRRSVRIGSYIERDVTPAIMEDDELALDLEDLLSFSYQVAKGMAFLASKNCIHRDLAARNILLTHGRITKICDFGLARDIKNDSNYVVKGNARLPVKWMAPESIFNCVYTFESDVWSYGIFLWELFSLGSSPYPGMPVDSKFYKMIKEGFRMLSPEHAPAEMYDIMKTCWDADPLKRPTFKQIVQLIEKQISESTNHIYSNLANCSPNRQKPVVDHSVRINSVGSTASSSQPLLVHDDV
# [15] = Selectivity for HER2 over EGFR
# [16] = biological target: T1, Insulin-like growth factor 1 receptor; assay: Inhibition of GST-tagged human IGF1R expressed in baculovirus-infected Sf21 cells by scintillation proximity assay
# [17] = biological target: T1, Insulin-like growth factor 1 receptor; assay: Inhibition of IGF1R in IGF1-stimulated human MCF7 cells by Western blot analysis; type: cell-based
# [18] = biological target: T1, Insulin-like growth factor 1 receptor; remark: listed apart in the source
# Description: Inhibition of IGF1R by cell based assay
# [19] = biological target: Vascular endothelial growth factor receptor 2 (Homo sapiens, UniProt P35968); assay: Inhibition of VEGFR2
# Chain of Vascular endothelial growth factor receptor 2 (P35968 whole entry): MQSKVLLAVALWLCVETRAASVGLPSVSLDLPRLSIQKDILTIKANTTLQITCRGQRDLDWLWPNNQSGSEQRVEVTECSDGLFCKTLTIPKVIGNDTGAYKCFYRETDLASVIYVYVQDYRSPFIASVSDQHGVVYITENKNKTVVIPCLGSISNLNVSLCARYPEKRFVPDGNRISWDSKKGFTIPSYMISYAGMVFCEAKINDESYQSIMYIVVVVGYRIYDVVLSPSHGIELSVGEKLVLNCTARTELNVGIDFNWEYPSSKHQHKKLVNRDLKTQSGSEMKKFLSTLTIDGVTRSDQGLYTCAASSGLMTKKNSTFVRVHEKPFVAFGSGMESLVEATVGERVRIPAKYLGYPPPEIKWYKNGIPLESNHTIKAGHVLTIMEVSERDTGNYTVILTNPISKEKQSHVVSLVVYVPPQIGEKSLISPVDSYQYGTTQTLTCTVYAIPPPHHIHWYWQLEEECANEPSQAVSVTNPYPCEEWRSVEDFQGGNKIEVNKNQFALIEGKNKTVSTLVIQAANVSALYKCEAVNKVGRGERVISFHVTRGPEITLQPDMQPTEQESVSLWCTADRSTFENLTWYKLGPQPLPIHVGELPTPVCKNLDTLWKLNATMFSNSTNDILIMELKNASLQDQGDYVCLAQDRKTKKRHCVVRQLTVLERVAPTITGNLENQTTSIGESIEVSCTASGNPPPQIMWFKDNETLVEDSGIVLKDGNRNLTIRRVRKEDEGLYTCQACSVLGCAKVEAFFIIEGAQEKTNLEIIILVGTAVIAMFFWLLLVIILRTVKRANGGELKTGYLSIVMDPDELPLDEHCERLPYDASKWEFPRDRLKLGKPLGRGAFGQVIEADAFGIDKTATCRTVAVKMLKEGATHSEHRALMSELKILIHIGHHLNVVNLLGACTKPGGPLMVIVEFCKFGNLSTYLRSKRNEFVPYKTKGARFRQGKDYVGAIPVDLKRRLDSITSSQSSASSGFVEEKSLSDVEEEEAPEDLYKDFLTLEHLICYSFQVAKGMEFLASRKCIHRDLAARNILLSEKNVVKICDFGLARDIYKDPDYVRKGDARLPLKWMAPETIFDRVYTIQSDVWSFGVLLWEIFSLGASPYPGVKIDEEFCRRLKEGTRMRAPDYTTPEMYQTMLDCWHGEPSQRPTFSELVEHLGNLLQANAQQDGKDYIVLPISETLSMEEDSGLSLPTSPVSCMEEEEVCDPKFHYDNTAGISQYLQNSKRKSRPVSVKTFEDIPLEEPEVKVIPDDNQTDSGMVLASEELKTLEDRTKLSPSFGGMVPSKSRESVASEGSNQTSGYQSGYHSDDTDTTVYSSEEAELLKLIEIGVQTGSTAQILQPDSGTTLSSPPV
# [20] = Inhibition of PDGFR
# Insulin receptor [21] = biological target: T2, Insulin receptor
# Description: Inhibition of insulin receptor by cell based assay
# [22] = biological target: Receptor tyrosine-protein kinase erbB-2 (Homo sapiens, UniProt P04626); assay: Inhibition of HER2
# [23] = Selectivity for insulin receptor over IGF1R
# T1 sequence (P08069 31-736 limits assumed): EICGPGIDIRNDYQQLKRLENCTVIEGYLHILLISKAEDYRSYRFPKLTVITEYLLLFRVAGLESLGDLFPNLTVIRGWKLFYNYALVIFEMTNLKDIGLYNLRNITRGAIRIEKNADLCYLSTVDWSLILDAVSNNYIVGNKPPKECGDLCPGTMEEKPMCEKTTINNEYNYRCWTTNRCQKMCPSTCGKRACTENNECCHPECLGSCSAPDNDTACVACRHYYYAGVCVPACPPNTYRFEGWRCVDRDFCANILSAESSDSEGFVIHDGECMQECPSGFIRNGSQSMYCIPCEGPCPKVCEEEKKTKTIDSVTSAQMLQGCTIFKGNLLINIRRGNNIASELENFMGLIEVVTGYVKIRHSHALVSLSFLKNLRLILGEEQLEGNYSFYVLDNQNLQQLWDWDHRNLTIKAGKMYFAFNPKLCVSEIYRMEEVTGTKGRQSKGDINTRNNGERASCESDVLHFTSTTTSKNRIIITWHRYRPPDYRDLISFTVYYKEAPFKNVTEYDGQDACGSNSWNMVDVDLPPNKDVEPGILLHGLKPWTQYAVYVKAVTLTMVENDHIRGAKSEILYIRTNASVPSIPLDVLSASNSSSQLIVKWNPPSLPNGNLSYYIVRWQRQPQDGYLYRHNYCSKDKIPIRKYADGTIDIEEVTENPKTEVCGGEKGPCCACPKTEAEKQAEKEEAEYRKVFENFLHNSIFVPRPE
# T1 sequence (P08069 741-1367 limits assumed): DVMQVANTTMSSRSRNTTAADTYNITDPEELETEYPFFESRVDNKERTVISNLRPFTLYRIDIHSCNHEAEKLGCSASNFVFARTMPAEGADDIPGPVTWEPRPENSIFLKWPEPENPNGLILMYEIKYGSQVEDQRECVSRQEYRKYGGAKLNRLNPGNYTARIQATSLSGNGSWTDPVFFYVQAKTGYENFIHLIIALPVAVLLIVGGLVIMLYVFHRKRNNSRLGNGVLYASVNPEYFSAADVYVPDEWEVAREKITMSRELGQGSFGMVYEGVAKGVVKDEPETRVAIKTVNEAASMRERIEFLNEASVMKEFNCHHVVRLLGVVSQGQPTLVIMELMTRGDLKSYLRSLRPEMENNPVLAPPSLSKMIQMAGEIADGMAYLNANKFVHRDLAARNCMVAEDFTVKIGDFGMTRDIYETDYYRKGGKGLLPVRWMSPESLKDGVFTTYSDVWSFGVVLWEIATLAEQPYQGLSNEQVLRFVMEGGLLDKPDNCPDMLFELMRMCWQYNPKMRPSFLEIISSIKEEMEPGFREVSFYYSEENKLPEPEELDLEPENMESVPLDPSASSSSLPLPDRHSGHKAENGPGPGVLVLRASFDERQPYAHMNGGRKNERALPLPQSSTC
smiles,measurement,setting,value
CN1CCN(c2ccc(C(=O)Nc3n[nH]c4c3CN(S(=O)(=O)c3cc(F)cc(F)c3)CC4)cc2)CC1,IC50,[1],3050 nM
same,IC50,[2],340 nM
O=C(O[C@@H]1Cc2ccccc2O[C@@H]1c1cc(O)c(O)c(O)c1)c1cc(O)c(O)c(O)c1,IC50,[3],14000 nM
Cc1cc(N2CCN(CCC#N)CC2)cc2nc(-c3c(NC[C@@H](O)c4ccccc4Cl)cc[nH]c3=O)[nH]c12,IC50,[4],146 nM
same,IC50,MCF7,234 nM
same,IC50,Focal adhesion kinase 1,94 nM
same,IC50,[5],188 nM
same,IC50,COLO 205,120 nM
same,IC50,[6],> 1500 nM
N#C/C(=C\c1ccc(O)c(O)c1)C(=O)NCc1ccccc1,Selectivity ratio,[7],100
COc1ccc(Cl)cc1NC(=O)Nc1cc(C)nc2ccccc12,IC50,[8],< 1000 nM
N#C/C(=C\c1ccc(O)c(O)c1)C(=O)c1ccc(O)c(O)c1,IC50,[3],61 nM
CN1CCN(c2ccc(C(=O)Nc3n[nH]c4c3CN(S(=O)(=O)c3cc(F)cc(F)c3)CC4)c(NC(=O)c3ccc[nH]3)c2)CC1,IC50,[9],80 nM
CCOC(=O)c1[nH]c(C=O)c(C(=O)OCC)c1C,Activity,[10],15 µM
same,Activity,[11],2.7 µM
same,Activity,Insulin receptor [12],12 µM
Cc1cc(N2CCOCC2)cc2[nH]c(-c3c(NC[C@@H](O)c4cccc(Cl)c4)cc[nH]c3=O)nc12,IC50,[4],202 nM
same,IC50,[5],194 nM
Nc1ncnc2c1c(-c1cccc(OCc3ccccc3)c1)cn2[C@H]1C[C@@H](CN2CCC2)C1 [AEW-541],IC50,[13],> 10000 nM
same,IC50,Bcr/Abl fusion protein,> 10000 nM
same,IC50,[14],> 5000 nM
CC(C)(C)c1cc(/C=C(\C#N)C(N)=S)cc(C(C)(C)C)c1O,Selectivity ratio,[15],1000
CN1CCN(c2ccc(C(=O)Nc3n[nH]c4c3CN(S(=O)(=O)c3cc(F)cc(F)c3)C4(C)C)cc2NC(=O)c2cc[nH]c2)CC1,IC50,[16],90 nM
same,IC50,[17],300 nM
Cc1cc(N2CCOCC2)cc2[nH]c(-c3c(NC[C@H](O)c4ccccc4Cl)cc[nH]c3=O)nc12,IC50,[3],830 nM
Nc1ncnc2c1c(-c1cccc(OCc3ccccc3)c1)cn2[C@H]1C[C@H](N2CCCC2)C1,IC50,Bcr/Abl fusion protein,> 10000 nM
same,IC50,[18],170 nM
same,IC50,[14],> 5000 nM
same,IC50,[19],> 10000 nM
same,IC50,[20],> 10000 nM
same,IC50,Insulin receptor [21],2800 nM
same,IC50,[22],> 10000 nM
Nc1nccn2cnc(-c3ccc4ccc(-c5ccccc5)nc4c3C3CC(N4CC4)C3)c12 (configuration not stated),IC50,[3],20 nM
same,Selectivity ratio,[23],5
CCOC(=O)c1c(C=O)[nH]c(C(=O)OC(C)(C)C)c1CC,Activity,[10],5.3 µM
same,Activity,[11],0.49 µM
same,Activity,Insulin receptor [12],2 µM
